Biological target: T1, activated complement protein Cl (Homo sapiens, UniProt P09871)
T1 sequence (P09871 16-437 limits assumed): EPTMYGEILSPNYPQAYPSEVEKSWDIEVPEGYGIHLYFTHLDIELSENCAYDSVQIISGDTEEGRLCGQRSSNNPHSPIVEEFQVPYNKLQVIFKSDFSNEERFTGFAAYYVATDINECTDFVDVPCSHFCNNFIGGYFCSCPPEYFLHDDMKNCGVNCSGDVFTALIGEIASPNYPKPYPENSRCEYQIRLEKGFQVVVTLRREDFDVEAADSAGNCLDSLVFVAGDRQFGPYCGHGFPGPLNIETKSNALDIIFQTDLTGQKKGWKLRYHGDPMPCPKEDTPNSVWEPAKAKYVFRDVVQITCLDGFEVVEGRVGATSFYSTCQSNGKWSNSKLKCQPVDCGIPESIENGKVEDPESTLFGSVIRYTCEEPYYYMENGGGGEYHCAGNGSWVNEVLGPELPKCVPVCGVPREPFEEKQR
T1 sequence (P09871 438-688 limits assumed): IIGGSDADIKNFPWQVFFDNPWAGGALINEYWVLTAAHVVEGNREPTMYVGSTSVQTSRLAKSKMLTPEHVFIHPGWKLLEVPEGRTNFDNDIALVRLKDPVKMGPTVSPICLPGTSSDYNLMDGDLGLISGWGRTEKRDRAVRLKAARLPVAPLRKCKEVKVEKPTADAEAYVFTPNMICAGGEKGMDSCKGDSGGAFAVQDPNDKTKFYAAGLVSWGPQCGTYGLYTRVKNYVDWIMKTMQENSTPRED
Test: Test Code 026 (C 1 inhibitor): protection of fluid phase C2 from activated C1 in the presence of C4, serial dilution assay
Assay type: biochemical
Conditions: for times as active as the mixture of hexa- through deca- salts produced by Example 2 of European Application No. 13470A: Test Code 026, worked out from well numbers, two-fold serial dilutions; for In Vitro Activity Test Code 026: activity in wells, two-fold serial dilution assay, the higher the well number the higher the activity
Source text: An active inhibitor protects C2 from Cl and C4.
This test measures activity in wells by a serial dilution assay. The higher the well number the higher is the activity. The serial dilutions are two-fold, so that in the test shown above the rutin deca(H-)sulfate sodium salt in accordance with this invention is 16 times as active as the mixture of hexa- through deca- salts produced by Example 2 of European Application No. 13470A, whilst the rutin nona(H-)sulfate sodium salt in accordance with this invention is 8 times as active as the aforesaid mixture.

Substance | times as active as the mixture of hexa- through deca- salts produced by Example 2 of European Application No. 13470A [times] | In Vitro Activity Test Code 026
Rutin nona (H-sulfate) Sodium Salt [Rutin nona(H-)sulfate sodium salt] | 8 | +10
Rutin deca (H-sulfate) Sodium Salt [Rutin deca(H-)sulfate sodium salt] | 16 | +11
